Values joined by “and” are separate entries in the source; they are usually repeats but may differ in a detail not shown here. Equal entries are not always repeated. Where two headings read alike, the source gives them in different places.
Key:
AA8 = assay: Cell inhibition of different species, normoxic, AA8; assay type: cell-based, Rat; conditions: IC50 AA8/H460
Description: To further compare the cytotoxicity of TH-302 with that of compound A, the following further provide test results for H460 cell line and cells from different species at different test times in the same laboratory, with the same operator and under the same experimental conditions.

Plasma stability, rat = conditions: for Remaining percentage (%) / Remaining percentage: Rat plasma; for Remaining percentage: after 30 minutes
Description: The frozen plasma was immediately melted in a water bath of 37° C. The plasma was centrifuged at 3, 220 g for 10 minutes to remove the blood clots and the supernatant was collected into a new test tube. The pH of the plasma was checked and recorded. Note: a. Only plasma that has been melted no more than twice since arrival was used; b. Only plasma in the range of pH 7 to pH 8 was used.
1 mM of working solutions of the test compound and the control compound mevinolin were prepared in DMSO. 1 mM of the working solution of the control compound solution in […] was prepared in acetonitrile. 4 μL of the working solution was added to 796 μL of pre-incubated plasma to achieve 5 μM of final concentration. The final concentration of solvent was 0.5%.
[…] The assay is performed in duplicate. At the end of the two hour incubation, 300 μL of quenched solution at room temperature (acetonitrile containing internal standards (acetonitrile, 100 nM Alprazolam, 500 nM Labetalol and 2 μM ketoprofen)) was added to terminate the reaction. Samples at time 0 were prepared by adding 50 μL of standard addition plasma to the new test tubes with 300 μL of quenched solution at room temperature. The test tubes were mixed by vortex for 5 minutes. The samples in the plates were centrifuged at 3, 220×g for 30 minutes at 4° C. to precipitate the proteins. 100 μL of supernatant was transferred to a new plate. The supernatant was diluted with 100 μL of water, mixed well and analysed using LC-MS/MS.

H460 cells = assay: Clonogenic assay, H460; assay type: cell-based, human; conditions: for IC90: Homo sapiens, NCI-H460, 3 h; for HCR: IC90 ratio normoxic/N2
Description: (§1) The following PSN-1 cells, PANC1 cells, MiaPaCa-2 cells, H460 cells, DLD-1 WT (wild type) cells, DLD-1 BRCA2 KO (BRCA2 deletion) cells were seeded in 10 cm vitreous cell culture plates at specific cell numbers and incubated for 2 days at 37° C. and under the conditions of 5% CO2, 95% air and 100% relative humidity. On day 3, test compounds TH302 or AST-002-P2 at the specific concentrations were added to the cells, and incubated for 3 hours together with the cells under normoxic (21% O2) and hypoxic conditions (<0.01% O2), respectively. After cells were stimulated by compounds, the cells were washed once with 1×PBS and digested into single cells with pancreatic enzymes for cell counting. The above cells in specific cell numbers were reseeded in a new culture plate and cultured for 7 days to perform single cell colony formation. When single cells in compound culture plates stimulated under normoxic conditions proliferated to about 50 cells, the cultures were removed and stained with 0.5% crystal violet for 40 minutes. After staining, cells were counted for colonies using Colony Counter (VWR) and the IC90 was calculated.

[1] = system: DLD-1 BRCA2 KO (BRCA2 deletion) cells; assay: Clonogenic assay, DLD-1 BRCA2 KO; assay type: cell-based; conditions: for IC90: Homo sapiens, 3 h
Description: as §1

[2] = Blood-brain barrier experiment, brain and plasma concentrations after IV dosing; assay type: in vivo, CD-1 mice; conditions: for Kp: read-out: AUClnf Ratio (Brain/Plasma); for half-life: read-out: T½ (converted); for blood-brain barrier penetration: detected in brain tissue
Description: Three CD-1 […] were administered 1 mg/kg of the test compound intravenously at each time point. Blood and brain tissue were collected at 5 min, 15 min, 1 h, 2 h, 4 h and 8 h after administration.

[3] = 21% O2, read-out: IC90 Normoxia
[4] = <0.01% O2, read-out: IC90 Hypoxia
[5] = CD-1, mouse, brain, iv, 1 mg/kg, IV 1 mg/kg, 0.083 h, single animals, read-out: Brain concentration
[6] = CD-1, mouse, brain, iv, 1 mg/kg, IV 1 mg/kg, 0.25 h, single animals, read-out: Brain concentration
[7] = CD-1, mouse, brain, iv, 1 mg/kg, IV 1 mg/kg, 1 h, single animals, read-out: Brain concentration
[8] = CD-1, mouse, brain/plasma, iv, 1 mg/kg, IV 1 mg/kg, 0.083 h, read-out: Mean Ratio (Brain/Plasma)
[9] = CD-1, mouse, brain/plasma, iv, 1 mg/kg, IV 1 mg/kg, 0.083 h, single animals, read-out: Ratio (Brain/Plasma)
[10] = CD-1, mouse, brain/plasma, iv, 1 mg/kg, IV 1 mg/kg, 0.25 h, single animals, read-out: Ratio (Brain/Plasma)
[11] = CD-1, mouse, brain/plasma, iv, 1 mg/kg, IV 1 mg/kg, 1 h, read-out: Mean Ratio (Brain/Plasma)
[12] = CD-1, mouse, brain/plasma, iv, 1 mg/kg, IV 1 mg/kg, 1 h, single animals, read-out: Ratio (Brain/Plasma)
[13] = CD-1, mouse, brain/plasma, iv, 1 mg/kg, IV 1 mg/kg, 2 h, read-out: Mean Ratio (Brain/Plasma)
[14] = CD-1, mouse, brain/plasma, iv, 1 mg/kg, IV 1 mg/kg
[15] = CD-1, mouse, plasma, iv, 1 mg/kg, IV 1 mg/kg, 0.083 h, single animals, read-out: Plasma concentration
[16] = CD-1, mouse, plasma, iv, 1 mg/kg, IV 1 mg/kg, 0.25 h, single animals, read-out: Plasma concentration
[17] = CD-1, mouse, brain tissue, IV 1 mg/kg
[18] = CD-1, mouse, plasma, IV 1 mg/kg
[19] = IV 1 mg/kg, 0.083 h, single animals, 1 mg/kg
[20] = IV 1 mg/kg, 0.25 h, single animals, 1 mg/kg
[21] = IV 1 mg/kg, 1 h, single animals, 1 mg/kg
[22] = IV 1 mg/kg, 2 h, single animals, 1 mg/kg
[23] = IV 1 mg/kg, 4 h, single animals
[24] = IV 1 mg/kg, 8 h, single animals
[25] = IV 1 mg/kg, 4 h, single animals, 1 mg/kg

O=[N+]([O-])c1ccc(C(OP(=O)(N2CC2)N2CC2)C(F)(F)F)c2ccccc12 (racemic) [Compound A]
Multiplier: Rat/Human (AA8; exposure 3 days): 110 | Remaining percentage (%) (Plasma stability, rat; 15 min): 101 ± 1.33% | Remaining percentage (%) (Plasma stability, rat; 60 min): 88.9 ± 0.537% | Remaining percentage (%) (Plasma stability, rat; 90 min): 84.6 ± 1.20% | Remaining percentage (%) (Plasma stability, rat; 120 min): 69.0% and 69.0 ± 1.10% | Remaining percentage (%) (Plasma stability, rat; 2 h time course, 0 min): 100% | Remaining percentage (Plasma stability, rat): 52.11% | Remaining percentage (%) (Plasma stability, rat; time course, 30 min): 100 ± 2.23% | half-life at 5 µM (Plasma stability, rat; rat plasma): 226 min | plasma stability (Plasma stability, rat; rat plasma): unstable

O=[N+]([O-])c1ccc([C@@H](OP(=O)(N2CC2)N2CC2)C(F)(F)F)c2ccccc12 (single isomer, unassigned) [Compound C]
IC90 (H460 cells; [3]): 66 nM | IC90 (H460 cells; [4]): 41 nM | HCR (H460 cells): 1.6 | IC90 [1, 3]: > 10000 nM | IC90 [1, 4]: 112 nM | HCR ([1]; IC90 ratio normoxic/N2): >89 | HCR ([1]; IC90 ratio normoxic/N2, listed as compound C): > 89 | concentration at 0.083 h [2, 5]: 415 ng/g | concentration at 0.25 h [2, 6]: 146 ng/g | concentration at 1 h [2, 7]: 28.6 ng/g | Kp at 0.083 h [2, 8]: 1.07 | Kp at 0.083 h [2, 9]: 0.99 | Kp at 0.25 h [2, 10]: 0.82 | Kp at 1 h [2, 11]: 0.54 | Kp at 1 h [2, 12]: 0.52 | Kp at 2 h [2, 13]: 1.11 | Kp [2, 14]: 0.73 | concentration at 0.083 h [2, 15]: 417 ng/mL | concentration at 0.25 h [2, 16]: 179 ng/mL | half-life [2, 17]: 21 min | AUC(0-t) [2, 18]: 188 ng·h/mL | C0 [2, 18]: 694 ng/mL | half-life [2, 18]: 18 min | Brain concentration [2, 19]: 541.99 ng/g and 377.29 ng/g | Plasma concentration [2, 19]: 390.41 ng/mL and 456.85 ng/mL | Ratio (Brain/Plasma) [2, 19]: 1.39 and 0.83 | Brain concentration [2, 20]: 131.63 ng/g and 120.75 ng/g | Plasma concentration [2, 20]: 132.02 ng/mL and 154.92 ng/mL | Ratio (Brain/Plasma) [2, 20]: 1.00 and 0.78 | Brain concentration [2, 21]: 18.01 ng/g and 15.01 ng/g | Plasma concentration [2, 21]: 54.81 ng/mL and 25.61 ng/mL and 37.23 ng/mL | Ratio (Brain/Plasma) [2, 21]: 0.70 and 0.40 | Brain concentration [2, 22]: 8.31 ng/g and 1.90 ng/g and BLOQ | Plasma concentration [2, 22]: 4.69 ng/mL and 2.16 ng/mL and 1.64 ng/mL | Ratio (Brain/Plasma) [2, 22]: 0.88 | Brain concentration [2, 23]: BLOQ | Plasma concentration [2, 23]: BLOQ | Brain concentration [2, 24]: BLOQ | Plasma concentration [2, 24]: BLOQ | AUClast ([2]; brain tissue, IV 1 mg/kg): 136.59 ng·h/g | AUClnf ([2]; brain tissue, IV 1 mg/kg): 138.68 ng·h/g | MRTlnf_obs ([2]; brain tissue, IV 1 mg/kg): 20.4 min | blood-brain barrier penetration [2]: can penetrate the blood-brain barrier | Cl_obs ([2]; plasma, IV 1 mg/kg): 87.92 mL/min/kg | MRTlnf_obs ([2]; plasma, IV 1 mg/kg): 19.8 min | Vss_obs ([2]; plasma, IV 1 mg/kg): 1.73 L/kg

O=[N+]([O-])c1ccc([C@H](OP(=O)(N2CC2)N2CC2)C(F)(F)F)c2ccccc12 [Compound B]
concentration at 0.083 h [2, 5]: 992 ng/g | concentration at 0.25 h [2, 6]: 499 ng/g | concentration at 1 h [2, 7]: 88.1 ng/g | concentration at 2 h ([2]; CD-1, mouse, brain, iv, 1 mg/kg, IV 1 mg/kg, 2 h, single animals, read-out: Brain concentration): 9 ng/g | concentration at 4 h ([2]; CD-1, mouse, brain, iv, 1 mg/kg, IV 1 mg/kg, 4 h, single animals): 1.34 ng/g | Kp at 0.083 h [2, 8]: 2.25 | Kp at 0.083 h [2, 9]: 2.18 | Kp at 0.25 h [2, 10]: 1.47 | Kp at 1 h [2, 11]: 1.39 | Kp at 1 h [2, 12]: 1.26 | Kp at 2 h [2, 13]: 1.34 | Kp at 4 h ([2]; CD-1, mouse, brain/plasma, iv, 1 mg/kg, IV 1 mg/kg, 4 h, single animals, read-out: Ratio (Brain/Plasma)): 1.19 | Kp [2, 14]: 1.49 | concentration at 0.083 h [2, 15]: 454 ng/mL | concentration at 0.25 h [2, 16]: 341 ng/mL | concentration at 1 h ([2]; CD-1, mouse, plasma, iv, 1 mg/kg, IV 1 mg/kg, 1 h, single animals, read-out: Plasma concentration): 70 ng/mL | concentration at 2 h ([2]; CD-1, mouse, plasma, iv, 1 mg/kg, IV 1 mg/kg, 2 h, single animals, read-out: Plasma concentration): 8.54 ng/mL | half-life [2, 17]: 19.8 min | AUC(0-t) [2, 18]: 289 ng·h/mL | C0 [2, 18]: 532 ng/mL | half-life [2, 18]: 27 min | Brain concentration [2, 19]: 1038.97 ng/g and 916.57 ng/g | Plasma concentration [2, 19]: 485.00 ng/mL and 393.31 ng/mL | Ratio (Brain/Plasma) [2, 19]: 2.23 and 2.33 | Brain concentration [2, 20]: 480.24 ng/g and 420.87 ng/g | Plasma concentration [2, 20]: 289.25 ng/mL and 256.49 ng/mL | Ratio (Brain/Plasma) [2, 20]: 1.66 and 1.64 | Brain concentration [2, 21]: 104.66 ng/g and 103.20 ng/g | Plasma concentration [2, 21]: 87.46 ng/mL and 75.23 ng/mL | Ratio (Brain/Plasma) [2, 21]: 1.55 and 1.37 | Brain concentration [2, 22]: 13.14 ng/g and 15.08 ng/g | Plasma concentration [2, 22]: 9.83 ng/mL and 11.45 ng/mL | Ratio (Brain/Plasma) [2, 22]: 1.32 | Brain concentration [2, 25]: BLOQ | Plasma concentration [2, 25]: 1.13 ng/mL and 0.52 ng/mL and 0.28 ng/mL | Brain concentration [2, 24]: BLOQ | Plasma concentration [2, 24]: BLOQ | AUClast ([2]; brain tissue, IV 1 mg/kg): 429.34 ng·h/g | AUClnf ([2]; brain tissue, IV 1 mg/kg): 435.32 ng·h/g | MRTlnf_obs ([2]; brain tissue, IV 1 mg/kg): 24.6 min | blood-brain barrier penetration [2]: can penetrate the blood-brain barrier | Cl_obs ([2]; plasma, IV 1 mg/kg): 57.63 mL/min/kg | MRTlnf_obs ([2]; plasma, IV 1 mg/kg): 27.6 min | Vss_obs ([2]; plasma, IV 1 mg/kg): 1.59 L/kg

CC(OP(=O)(N1CC1)N1CC1)c1ccc([N+](=O)[O-])c2ccccc12 (stereo not shown) [Compound D]
Remaining percentage (Plasma stability, rat): 85.49% | plasma stability (Plasma stability, rat; rat plasma): relatively unstable

Cn1c(COP(=O)(NCCBr)NCCBr)cnc1[N+](=O)[O-] [TH-302, Evofosfamide]
Multiplier: Rat/Human (AA8; exposure 2 h): 41.5 | IC90 (H460 cells; [3]): 15600 nM | IC90 (H460 cells; [4]): 21 nM | HCR (H460 cells): 741 | IC90 [1, 3]: 21900 nM | IC90 [1, 4]: 3.01 nM | HCR ([1]; IC90 ratio normoxic/N2): 7277

Source: patent US20230339991A1, “HYPOXIA-ACTIVATED DNA ALKYLATING AGENT AND MEDICAL USE THEREOF” (ASCENTAWITS PHARMACEUTICALS, LTD., priority 2020, published 2023)
